# Legend:
# Assay in all cases: relative viability (nuclei count vs DMSO), 5 days (fraction); higher = more cells survive
# SW 1573 = tested on: SW 1573
# Outline: (§1)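 Dosing by pin tool came one day after lung cancer cell lines were seeded in 1536-well plates, using either one drug or a fixed anchor-drug dose plus five library-drug doses (not always all listed) in √10 steps. After 5 days, nuclei were counted on 4× images. Relative viability is treated-well nuclei count divided by vehicle-well nuclei count, and values are medians of duplicate plates.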
# NCI-H1650 = tested on: NCI-H1650
# Outline: as §1
# LK-2 = tested on: LK-2
# Outline: as §1
# NCI-H3122 = tested on: NCI-H3122
# Outline: as §1
# NCI-H596 = tested on: NCI-H596
# Outline: as §1
# NCI-H2228 = tested on: NCI-H2228
# Outline: as §1
# NCI-H838 = tested on: NCI-H838
# Outline: as §1
# NCI-H1666 = tested on: NCI-H1666
# Outline: as §1
# NCI-H358 = tested on: NCI-H358
# Outline: as §1
# NCI-H1355 = tested on: NCI-H1355
# Outline: as §1
# NCI-H322M = tested on: NCI-H322M
# Outline: as §1
# NCI-H520 = tested on: NCI-H520
# Outline: as §1
smiles,measurement,setting,value
O=c1[nH]c2ccccc2n1C1CCN(CCCC(c2ccc(F)cc2)c2ccc(F)cc2)CC1 [Pimozide] + N=C(N)NC(=N)NCCc1ccccc1 [Phenformin] (partner 250 µM),relative viability,SW 1573; first compound 0.08 µM,0.348
same,relative viability,SW 1573; first compound 0.253 µM,0.309
same,relative viability,SW 1573; first compound 0.8 µM,0.341
same,relative viability,SW 1573; first compound 2.53 µM,0.377
same,relative viability,SW 1573; first compound 8 µM,0.388
same,relative viability,NCI-H1650; first compound 0.08 µM,0.378
same,relative viability,NCI-H1650; first compound 0.253 µM,0.45
same,relative viability,NCI-H1650; first compound 0.8 µM,0.495
same,relative viability,NCI-H1650; first compound 2.53 µM,0.418
same,relative viability,NCI-H1650; first compound 8 µM,0.306
same,relative viability,LK-2; first compound 0.08 µM,0.501
same,relative viability,LK-2; first compound 0.253 µM,0.367
same,relative viability,LK-2; first compound 2.53 µM,0.237
same,relative viability,LK-2; first compound 8 µM,0.345
same,relative viability,NCI-H3122; first compound 0.08 µM,0.372
same,relative viability,NCI-H3122; first compound 0.253 µM,0.362
same,relative viability,NCI-H3122; first compound 0.8 µM,0.393
same,relative viability,NCI-H3122; first compound 2.53 µM,0.343
same,relative viability,NCI-H3122; first compound 8 µM,0.312
same,relative viability,NCI-H596; first compound 0.08 µM,0.751
same,relative viability,NCI-H596; first compound 0.253 µM,0.774
same,relative viability,NCI-H596; first compound 0.8 µM,0.588
same,relative viability,NCI-H596; first compound 2.53 µM,0.637
same,relative viability,NCI-H596; first compound 8 µM,0.897
same,relative viability,NCI-H2228; first compound 0.08 µM,0.371
same,relative viability,NCI-H2228; first compound 0.253 µM,0.293
same,relative viability,NCI-H2228; first compound 0.8 µM,0.338
same,relative viability,NCI-H2228; first compound 2.53 µM,0.225
same,relative viability,NCI-H2228; first compound 8 µM,0.192
same,relative viability,NCI-H838; first compound 0.08 µM,0.609
same,relative viability,NCI-H838; first compound 0.253 µM,0.636
same,relative viability,NCI-H838; first compound 0.8 µM,0.636
same,relative viability,NCI-H838; first compound 2.53 µM,0.519
same,relative viability,NCI-H838; first compound 8 µM,0.562
same,relative viability,NCI-H1666; first compound 0.08 µM,0.608
same,relative viability,NCI-H1666; first compound 0.253 µM,0.5
same,relative viability,NCI-H1666; first compound 0.8 µM,0.597
same,relative viability,NCI-H1666; first compound 2.53 µM,0.555
same,relative viability,NCI-H1666; first compound 8 µM,0.513
same,relative viability,NCI-H358; first compound 0.08 µM,0.295
same,relative viability,NCI-H358; first compound 0.253 µM,0.37
same,relative viability,NCI-H358; first compound 0.8 µM,0.366
same,relative viability,NCI-H358; first compound 2.53 µM,0.313
same,relative viability,NCI-H358; first compound 8 µM,0.327
same,relative viability,NCI-H1355; first compound 0.08 µM,0.45
same,relative viability,NCI-H1355; first compound 0.253 µM,0.435
same,relative viability,NCI-H1355; first compound 0.8 µM,0.437
same,relative viability,NCI-H1355; first compound 2.53 µM,0.417
same,relative viability,NCI-H1355; first compound 8 µM,0.404
same,relative viability,NCI-H322M; first compound 0.253 µM,0.738
same,relative viability,NCI-H322M; first compound 0.8 µM,0.766
same,relative viability,NCI-H322M; first compound 2.53 µM,0.816
same,relative viability,NCI-H322M; first compound 8 µM,0.749
same,relative viability,NCI-H520; first compound 0.08 µM,0.724
same,relative viability,NCI-H520; first compound 0.253 µM,0.615
